Patent US11382956B2, “Amylin analogues” (Zealand Pharma A/S, priority 2016, dated 2022)
Numbered stars: 1 amine (or outer) side, 2 acyl side, 3 side chain; on linkers, the order of the positions; unused ones are H or OH. Bridge positions count the residues as written; N and C are the ends. Square brackets hold non-standard residues; d marks the D form. Peptide text beside a SMILES is read from it. * marks the point of attachment. C20 diacid = O=C(O)CCCCCCCCCCCCCCCCCCC(=O)*; γGlu = O=C(O)[C@H](CCC(=O)[*:2])N[*:1]; Hyp = O=C(O)[C@@H]1C[C@@H](O)CN1; NMeI = CC[C@H](C)[C@H](NC)C(=O)O; Aad = N[C@@H](CCCC(=O)O)C(=O)O; Sar = CNCC(=O)O

Legend:
[1] = Effect on acute food intake and body weight in normal Sprague Dawley rats; format: in vivo, Sprague Dawley (SD) rats; details: vehicle-corrected
From the text: Sprague Dawley (SD) rats were obtained from Janvier Labs, France. The animals arrived at least 14 days before the study start to allow acclimatization to experimental conditions. From arrival and throughout the study, the rats were housed in groups of 2 to 4 (n=2-4) in a light-, temperature- and humidity-controlled room. Animals had access ad libitum to food (KLIBA 3430, Provimi Kliba AG, Switzerland) and water (domestic quality tap water) during the entire study. Per group 6-8 rats were included. A vehicle group and positive control group were included in each set of tests. […] Dosing volume was 2 ml/kg. Food intake was recorded online using an automated food intake system (HM02, MBRose, Denmark) for 4 days or manually at 0 h for a predose and then 24, 48, 72 and 96 h post dosing. Body weight was measured daily.
Statistical analyses were performed using GraphPad™ Prism version 7. The measured parameters were compared using two-way ANOVA followed by Dunnett's multiple comparison tests. Differences were considered statistically significant at p<0.05.

[2] = biological target: T1, recombinant human calcitonin receptor (hCT-R) (Homo sapiens, UniProt P30988); experiment: hCT-R cAMP assay (AlphaScreen) in 1321N1 cells; format: cell-based; details: cAMP formation, 45 min stimulation
T1 construct: host or cells: human astrocytoma cell line 1321N1
T1 sequence (P30988 25-474): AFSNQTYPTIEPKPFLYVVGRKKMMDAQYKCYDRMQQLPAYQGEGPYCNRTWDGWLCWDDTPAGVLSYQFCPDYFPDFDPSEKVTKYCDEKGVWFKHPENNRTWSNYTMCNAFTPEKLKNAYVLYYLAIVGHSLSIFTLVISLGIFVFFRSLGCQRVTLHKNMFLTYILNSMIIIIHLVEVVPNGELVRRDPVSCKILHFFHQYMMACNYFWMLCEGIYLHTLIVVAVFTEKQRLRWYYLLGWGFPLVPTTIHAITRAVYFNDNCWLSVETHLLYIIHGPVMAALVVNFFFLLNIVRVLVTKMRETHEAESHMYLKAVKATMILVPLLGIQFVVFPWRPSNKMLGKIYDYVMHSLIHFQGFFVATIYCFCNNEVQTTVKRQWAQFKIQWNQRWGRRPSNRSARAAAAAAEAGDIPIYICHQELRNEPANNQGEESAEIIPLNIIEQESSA
Method in brief: (§1)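 1321N1 astrocytoma cells expressing recombinant human calcitonin receptor alone or with RAMP3 (AMY3) stimulated 45 min at room temperature with peptide in IBMX-containing buffer. cAMP quantified by AlphaScreen after 1 h bead incubation; EC50 fitted from at least 7 concentrations.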

[3] = biological target: T2, recombinant human amylin 3 receptor (hAMYR3) (Homo sapiens, UniProt O60896+P30988); experiment: hAMYR3 cAMP assay (AlphaScreen) in 1321N1 cells; format: cell-based; details: cAMP formation, 45 min stimulation
T2 construct: host or cells: human astrocytoma cell line 1321N1
T2 sequence (P30988 25-474): T1 sequence (P30988 25-474)
T2 sequence (O60896 24-148 partner): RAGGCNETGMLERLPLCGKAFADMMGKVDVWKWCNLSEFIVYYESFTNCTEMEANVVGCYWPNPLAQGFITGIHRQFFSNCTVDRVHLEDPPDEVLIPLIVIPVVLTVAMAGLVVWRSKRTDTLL
Method in brief: as §1

[4] = Assessment of physical stability: fibril formation by Thioflavin T fluorescence; format: physicochemical; set-up: key: FND = fibrillation not detected; FD = fibrillation detected; details: 1 mg/mL peptide; for Fibrillation (in buffer) pH4 acetate: 50 mM acetate buffer pH 4.0, 96 hours at 40° C.; for Fibrillation (in buffer) pH7 histidine: 50 mM histidine buffer pH 7.0, 96 hours at 40° C.; for Fibrillation (in buffer) pH7 phosphate: 50 mM phosphate buffer pH 7.0, 96 hours at 40° C.
Method in brief: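 Test peptide at 1 mg/mL with 40 μM ThT in 50 mM phosphate pH 7.0, 50 mM histidine pH 7.0, or 50 mM acetate pH 4.0, in triplicate. Fluorescence read every 10 min after 300 s agitation for 96 hours at 40° C; significant intensity rise scored as fibrillation detected (FD).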

[5] = Assessment of chemical stability in 40 mM buffers at 40° C. (RP-HPLC); format: physicochemical; details: 1 mg/mL; for % degradation after 72 h at 40° C. pH4 acetate: acetate buffer pH 4, 72 h; for % degradation after 72 h at 40° C. pH6 phosphate: phosphate buffer pH 6, 72 h; for % degradation after 14 days at 40° C. pH6 phosphate: phosphate buffer pH 6, 14 days; for % degradation after 72 h at 40° C. pH7 phosphate: phosphate buffer pH 7, 72 h; for % degradation after 14 days at 40° C. pH7 phosphate: phosphate buffer pH 7, 14 days
Method in brief: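 Peptides at 1 mg/mL in 40 mM acetate pH 4 or phosphate pH 6 and 7 were held at 40° C for 3 and 14 days. Main-peak area-% by C8 RP-HPLC, UV 220 nm; % degradation = change in main-peak area-% versus t=0.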

CC[C@H](C)[C@@H](C(=O)N[C@@H](CC(C)C)C(=O)N[C@@H](CO)C(=O)N[C@@H](CO)C(=O)N[C@H](C(=O)N[C@@H](CCC(=O)O)C(=O)N[C@H](C(=O)NCC(=O)N[C@@H](CO)C(=O)N[C@@H](CC(N)=O)C(=O)N[C@H](C(=O)N1C[C@H](O)C[C@H]1C(N)=O)[C@@H](C)O)C(C)C)[C@@H](C)O)N(C)C(=O)[C@H](C)NC(=O)CN(C)C(=O)[C@H](Cc1ccccc1)NC(=O)[C@H](CO)NC(=O)[C@H](CO)NC(=O)[C@H](CCCNC(=N)N)NC(=O)[C@H](CCC(N)=O)NC(=O)[C@H](CC(C)C)NC(=O)[C@H](Cc1ccccc1)NC(=O)[C@H](CC(=O)O)NC(=O)[C@H](C)NC(=O)[C@H](CC(C)C)NC(=O)[C@H](CCCNC(=N)N)NC(=O)[C@H](CCC(N)=O)NC(=O)[C@@H](NC(=O)[C@H](C)NC(=O)[C@@H]1CCCCNC(=O)C[C@H](NC(=O)[C@H](CCCNC(=N)N)NC(=O)CC[C@H](NC(=O)CCCCCCCCCCCCCCCCCCC(=O)O)C(=O)O)C(=O)NCC(=O)N[C@@H]([C@@H](C)O)C(=O)N[C@@H](C)C(=O)N[C@@H]([C@@H](C)O)C(=O)N1)[C@@H](C)O [Compound 41, [19CD]-isoGlu-RD()GTATK()ATQRLADFLQRSSF-Gly(Me)-A-Ile(Me)-LSSTEVGSNT-Hyp-NH2] ({C20 diacid-γGlu}-RDGTATKATQRLADFLQRSSF[Sar]A[NMeI]LSSTEVGSNT[Hyp]-NH2; lactam 2-7)
Body weight reduction in % at 48 h ([1]; Dose: 30 nmol/kg sc): 11%
Food intake reduction in % at 48 h ([1]; Dose: 30 nmol/kg sc): 75%
EC50 [2]: 0.095 nM
EC50 [3]: 0.024 nM
Fibrillation (in buffer) pH4 acetate [4]: FND
Fibrillation (in buffer) pH7 histidine [4]: FND
Fibrillation (in buffer) pH7 phosphate [4]: FND
% degradation after 72 h at 40° C. pH4 acetate [5]: <1%
% degradation after 14 days at 40° C. pH4 acetate ([5]; acetate buffer pH 4, 14 days): 1.1%
% degradation after 72 h at 40° C. pH6 phosphate [5]: <1%
% degradation after 14 days at 40° C. pH6 phosphate [5]: <1%
% degradation after 72 h at 40° C. pH7 phosphate [5]: <1%
% degradation after 14 days at 40° C. pH7 phosphate [5]: <1%

CC[C@H](C)[C@@H](C(=O)N[C@@H](CC(C)C)C(=O)N[C@@H](CO)C(=O)N[C@@H](CO)C(=O)N[C@H](C(=O)N[C@@H](CCC(=O)O)C(=O)N[C@H](C(=O)NCC(=O)N[C@@H](CO)C(=O)N[C@@H](CC(N)=O)C(=O)N[C@H](C(=O)N1C[C@H](O)C[C@H]1C(N)=O)[C@@H](C)O)[C@@H](C)O)[C@@H](C)O)N(C)C(=O)[C@H](C)NC(=O)CN(C)C(=O)[C@H](Cc1ccccc1)NC(=O)[C@H](CO)NC(=O)[C@H](CO)NC(=O)[C@H](CCCNC(=N)N)NC(=O)[C@H](CCC(N)=O)NC(=O)[C@H](CC(C)C)NC(=O)[C@H](Cc1ccccc1)NC(=O)[C@H](CCCC(=O)O)NC(=O)[C@H](C)NC(=O)[C@H](CC(C)C)NC(=O)[C@H](CCCNC(=N)N)NC(=O)[C@H](CCC(=O)O)NC(=O)[C@@H](NC(=O)[C@H](C)NC(=O)[C@@H]1CCCCNC(=O)C[C@H](NC(=O)[C@H](CCCNC(=N)N)NC(=O)CC[C@H](NC(=O)CCCCCCCCCCCCCCCCCCC(=O)O)C(=O)O)C(=O)NCC(=O)N[C@@H]([C@@H](C)O)C(=O)N[C@@H](C)C(=O)N[C@@H]([C@@H](C)O)C(=O)N1)[C@@H](C)O [Compound 36, [19CD]-isoGlu-RD()GTATK()ATERLA-Aad-FLQRSSF-Gly(Me)-A-Ile(Me)-LSSTETGSNT-Hyp-NH2] ({C20 diacid-γGlu}-RDGTATKATERLA[Aad]FLQRSSF[Sar]A[NMeI]LSSTETGSNT[Hyp]-NH2; lactam 2-7)
Body weight reduction in % at 48 h ([1]; at dose of 10 nmol/kg sc): 5.2%
Food intake reduction in % at 48 h ([1]; at dose of 10 nmol/kg sc): 44%
EC50 [2]: 0.026 nM
EC50 [3]: 0.007 nM
Fibrillation (in buffer) pH4 acetate [4]: FD
Fibrillation (in buffer) pH7 histidine [4]: FND
Fibrillation (in buffer) pH7 phosphate [4]: FND
% degradation after 72 h at 40° C. pH4 acetate [5]: 2.5%
% degradation after 72 h at 40° C. pH6 phosphate [5]: 2.1%
% degradation after 14 days at 40° C. pH6 phosphate [5]: 1.6%
% degradation after 72 h at 40° C. pH7 phosphate [5]: 1.0%
% degradation after 14 days at 40° C. pH7 phosphate [5]: <1%

CC[C@H](C)[C@@H](C(=O)N[C@@H](CC(C)C)C(=O)N[C@@H](CO)C(=O)N[C@@H](CO)C(=O)N[C@H](C(=O)N[C@@H](CCC(=O)O)C(=O)N[C@H](C(=O)NCC(=O)N[C@@H](CO)C(=O)N[C@@H](CC(N)=O)C(=O)N[C@H](C(=O)N1C[C@H](O)C[C@H]1C(N)=O)[C@@H](C)O)C(C)C)[C@@H](C)O)N(C)C(=O)[C@H](C)NC(=O)CN(C)C(=O)[C@H](Cc1ccccc1)NC(=O)[C@H](CO)NC(=O)[C@H](CO)NC(=O)[C@H](CCCNC(=N)N)NC(=O)[C@H](CCC(N)=O)NC(=O)[C@H](CC(C)C)NC(=O)[C@H](Cc1ccccc1)NC(=O)[C@H](CCCC(=O)O)NC(=O)[C@H](C)NC(=O)[C@H](CC(C)C)NC(=O)[C@H](CCCNC(=N)N)NC(=O)[C@H](CCC(N)=O)NC(=O)[C@@H](NC(=O)[C@H](C)NC(=O)[C@@H]1CCCCNC(=O)C[C@H](NC(=O)[C@H](CCCCN)NC(=O)CC[C@H](NC(=O)CCCCCCCCCCCCCCCCCCC(=O)O)C(=O)O)C(=O)NCC(=O)N[C@@H]([C@@H](C)O)C(=O)N[C@@H](C)C(=O)N[C@@H]([C@@H](C)O)C(=O)N1)[C@@H](C)O [Compound 39, [19CD]-isoGlu-KD()GTATK()ATQRLA-Aad-FLQRSSF-Gly(Me)-Alle(Me)-LSSTEVGSNTHyp-NH2] ({C20 diacid-γGlu}-KDGTATKATQRLA[Aad]FLQRSSF[Sar]A[NMeI]LSSTEVGSNT[Hyp]-NH2; lactam 2-7)
Body weight reduction in % at 48 h ([1]; Dose: 30 nmol/kg sc): 9.2%
Food intake reduction in % at 48 h ([1]; Dose: 30 nmol/kg sc): 76%
EC50 [2]: 0.094 nM
EC50 [3]: 0.024 nM
Fibrillation (in buffer) pH4 acetate [4]: FD
Fibrillation (in buffer) pH7 histidine [4]: FND
Fibrillation (in buffer) pH7 phosphate [4]: FND
% degradation after 72 h at 40° C. pH4 acetate [5]: <1%
% degradation after 72 h at 40° C. pH6 phosphate [5]: <1%
% degradation after 72 h at 40° C. pH7 phosphate [5]: <1%
